The results in this text go back to article PMC4122979, “The N-terminal portion of autoinhibitory element modulates human endothelial nitric-oxide synthase activity through coordinated controls of phosphorylation at Thr^495 and Ser^1177” (Bioscience Reports, 2014).

In test [1] the test system is human CaM. Kind of test: CaM mobility shift gel (CBD peptide binding to CaM). Particulars: 200 pmol CaM; for order of binding affinity for CBD variants to CaM: densitometric analysis of attenuation of free CaM bands (I/I0 versus peptide:CaM ratio), 100 μM CaCl2, pH 7.5, triplicate gels (n=4 in Figure 5 legend); for CaM-peptide complex formation: non-denaturing, non-reducing PAGE (18% gel), peptide 0–2000 pmol, 1 h, 20 mM Tris, pH 7.5, 100 μM CaCl2, Coomassie staining. Here is the method: Human CaM was purified essentially as described previously. CaM (200 pmol) was incubated with each peptide at several molar ratios for 1 h in 10 μl of buffer containing 20 mM Tris, pH 7.5 with 100 μM CaCl2. The sample was subjected to non-denaturing, non-reducing PAGE (18% gel) at 30 mA under high Ca^2+ conditions (100 μM free Ca^2+ in all gel buffers). Binding of peptides to CaM was visualized by Coomassie Brilliant Blue R-250 staining. The relative amount of CaM on the gel at each peptide concentration (I) was determined by densitometry and normalized to CaM in the absence of peptide (I0). The data are plotted as the mean I/I0±S.D. (n=4) versus peptide:CaM ratio.
What needs to be explained is why a similar activation of eNOS is observed with little effect on phosphorylation of Thr^495 in mutant Δ605. Thus, it is difficult at this stage to conclude the precise roles of Thr^495 dephosphorylation in the activation of eNOS. Conflicting conclusions have also been drawn from earlier observations in the role of Thr^495 phosphorylation with eNOS activation. It has been reported that eNOS activity is increased by phosphorylation of Ser^1177 despite enhanced Thr^495 phosphorylation. […] To resolve this discrepancy, we synthesized peptides representing heNOS CBD (residues 491–510) with point mutations at Thr^495 site (Figure 5A) and determined the apparent affinity of the CBD variants to CaM. Each peptide with increasing concentrations (0–2000 pmol) was incubated with purified CaM at a fixed concentration (200 pmol) in the presence of 100 μM CaCl2. The mixtures were electrophoresed on non-reducing, non-denaturing gels. […] Peptide–CaM complexes migrate as higher molecular weight bands than free CaM in the presence of calcium. […] The extent of CaM-peptide interaction was assessed by densitometric analysis of attenuation of free CaM bands in the presence of increasing concentrations of each peptide.
Figure 5 Interaction of synthetic CBD peptides with calcium/CaM (A) Peptide CBD sequences (residues 491–510, based on heNOS) with unmodified T495 (T495), phosphonull A substitution (A495, red colour), phosphomimetic substitution (D495, blue colour) and phosphorylated T495 (pT495, brown colour) are indicated. (B) The synthetic CBD variants were incubated with CaM (200 pmol) by increasing peptide:CaM molar ratios in the presence of 100 μM CaCl2 before electrophoresis. The samples were analysed on 18% non-denaturing gels and visualized with Coomassie Brilliant Blue R-250. Representative Coomassie Brilliant Blue-stained gels of samples containing CaM and increasing molar ratios of T495, A495, D495 and pT495 are shown. The first lane in each gel contains CaM only, i.e., CBD/CaM ratio is 0. The rest CBD/CaM ratios were 0.1:1 (2nd lane), 0.2:1 (3rd lane), 0.4:1 (4th lane), 0.8:1 (5th lane), 1.6:1 (6th lane), 3.2:1 (7th lane), 6.4:1 (8th lane) and 12.8:1 (9th lane). CBD–CaM complexes and free CaM are denoted. (C) The relative amount of CaM on the gel at each peptide concentration (I) was determined by densitometry and normalized to CaM in the absence of peptide (I0). The data are plotted as the mean I/I0±S.D. (n=4) versus peptide:CaM ratio.

The subject of test [2] is eNOS. Kind of test: Inhibition of eNOS oxygenase activity (L-[^3H]citrulline formation) by CBD peptides. The format is biochemical, human. Particulars: 10 μM peptide; for inhibition of L-citrulline formation: relative to rate without peptide, mean of triplicate experiments; for order of inhibitory potency to eNOS activity: inter-domain electron transfer (citrulline formation): same order stated for CaM binding affinity. The method, then: (§1) The expression and purification of eNOS from Sf21 cells was carried out essentially same as previously reported. The inhibition of eNOS oxygenase activity by unmodified or modified CBDs was tested at 37°C for 4 min by measuring L-[^3H]citrulline formation in a mixture containing 25 mM Tris, pH 7.5, 100 mM NaCl, 0.5 μM CaM, 0.2 mM EDTA, 0.3 mM CaCl2, 100 μM β-NADPH, 10 μM H4B, 20 μM L-arginine, 1 μCi of L-[^3H]arginine, 100 nM eNOS, and in the presence or absence of 10 μM of each peptide. Cytochrome c reduction was determined at room temperature (25°C) in a reaction mixture containing 25 mM Tris–HCl, pH 7.5, 100 mM NaCl, 10% glycerol, 50 μM cytochrome c, 0.5 μM CaM, 100 μM CaCl2 and 100 μM β-NADPH in the presence or absence of 10 μM of each peptide. The reaction was initiated by addition of 50 nM eNOS and monitored at 550 nm in a GE geneQuant100 spectrophotometer. Activity was determined using a ΔE550=21 mM^−1cm^−1. An assay in the absence of CaM was carried out to serve as baseline reference.
(§2) Figure 6 Evaluation of inhibitory potency of CBD variants on eNOS activity Modified or unmodified CBD peptides were assessed for their ability to inhibit (A) citrulline formation activity and (B) Cytochrome c reduction. CR denotes a complete reaction mixture; CR-CaM denotes omission of CaM from the complete reaction mixture; CR+T495 indicates the addition of 10 μM of unmodified CBD (T495) to the complete reaction mixture; CR+A495 denotes the addition of 10 μM of phosphonull CBD (A495) to the complete reaction mixture; CR+D495 indicates the addition of 10 μM of phosphomimetic CBD (D495) to the complete reaction mixture; CR+pT495 denotes the addition of 10 μM of phosphorylated CBD (pT495) to the complete reaction mixture. The complete reaction mixture for L-[^3H]citrulline formation contains 25 mM Tris, pH 7.5, 100 mM NaCl, 0.5 μM CaM, 0.2 mM EDTA, 0.3 mM CaCl2, 100 μM β-NADPH, 10 μM H4B, 20 μM L-arginine, 1 μCi of L-[^3H]arginine, 100 nM eNOS. The complete reaction mixture for cytochrome c reduction contains 25 mM Tris–HCl, pH 7.5, 100 mM NaCl, 10% glycerol, 50 μM cytochrome c, 0.5 μM CaM, 100 μM CaCl2 and 100 μM β-NADPH. The catalytic activity was normalized to give percentages relative to the reaction rate in the absence of each peptide. Each bar represents mean±S.D. of triplicate experiments. Under these conditions, the activities for eNOS bound to CaM were 12±2/min for citrulline formation, and 295±15/min for cytochrome c reduction. Data are presented as means±S.D.*denotes P<0.05, ** P<0.01, NS, not significant difference as compared with that in the absence of synthetic CBD peptides. Each experiment was performed in triplicate and repeated three times.

In test [3] the test system is eNOS. Kind of test: Inhibition of eNOS reductase activity (cytochrome c reduction) by CBD peptides. The format is biochemical, human. To be noted: 10 μM peptide; for inhibition of cytochrome c reductase activity / effect on cytochrome c reduction (electron transfer within reductase domain), in words: 50 nM eNOS, 0.5 μM CaM, 100 μM CaCl2, 50 μM cytochrome c, 100 μM β-NADPH, pH 7.5, 25°C, 550 nm; for inhibition of cytochrome c reductase activity: relative to rate without peptide, mean of triplicate experiments; for order of inhibitory potency to eNOS activity: intra-domain electron transfer (cytochrome c reduction): same order stated for CaM binding affinity. Here is the method: as §1, §2

The mark [4] stands for this setting: 100 nM eNOS, 0.5 μM CaM, 0.3 mM CaCl2, 20 μM L-arginine, pH 7.5, 37°C, 4 min.

Consider “TRKKD^495FKEVANAVKISASLM [D495, phosphomimetic CBD peptide, heNOS residues 491–510]”, for which, in test [1], the “order of binding affinity for CBD variants to CaM” value (“order of binding affinity” below) is reported as “T495>A495>D495>pT495” and the CaM-peptide complex formation result is reported as “also showed CaM-peptide binding”. In test [2] (setting [4]), the “inhibition of L-citrulline formation” value was 20%. For the same substance, in test [2], the “order of inhibitory potency to eNOS activity: inter-domain electron transfer (citrulline formation)” value was “T495>A495>D495>pT495”. In addition, in test [3], the “inhibition of cytochrome c reductase activity” value is given as 75% and the “order of inhibitory potency to eNOS activity: intra-domain electron transfer (cytochrome c reduction)” value is listed as “T495>A495>D495>pT495”.

For “TRKKT^495FKEVANAVKISASLM [T495, Unmodified CBD peptide, heNOS residues 491–510]”, in test [1], the “order of binding affinity” value was “T495>A495>D495>pT495”; the CaM-peptide complex formation entry was “exhibited increases in CaM–peptide complex bands and reciprocal attenuation of free CaM bands”. Moreover, the “inhibition of L-citrulline formation” value in test [2] (setting [4]) was determined as 87%. The “order of inhibitory potency to eNOS activity: inter-domain electron transfer (citrulline formation)” value in test [2] is on record as “T495>A495>D495>pT495”. In test [3], the “effect on cytochrome c reduction (electron transfer within reductase domain), in words” value is “inhibits the activity completely” and the “order of inhibitory potency to eNOS activity: intra-domain electron transfer (cytochrome c reduction)” value was “T495>A495>D495>pT495”.

With “TRKKpT^495FKEVANAVKISASLM [pT495, phosphorylated CBD peptide, heNOS residues 491–510]”, in test [1], the “order of binding affinity” value is given as “T495>A495>D495>pT495” and the CaM-peptide complex formation result is listed as “nearly no detectable peptide-CaM complex”. The “effect on eNOS oxygenase activity (citrulline formation), in words” value in test [2] (setting [4]) was “did not interfere with eNOS oxygenase activity”. Also, in test [2], the “order of inhibitory potency to eNOS activity: inter-domain electron transfer (citrulline formation)” value is given as “T495>A495>D495>pT495”. In test [3], the “effect on cytochrome c reduction (electron transfer within reductase domain), in words” value is “virtually no inhibition on electron transfer within reductase domain” and the “order of inhibitory potency to eNOS activity: intra-domain electron transfer (cytochrome c reduction)” value is “T495>A495>D495>pT495”.

For “TRKKA^495FKEVANAVKISASLM [A495, phospho-null CBD peptide, heNOS residues 491–510]”, in test [1], the “order of binding affinity” value is recorded as “T495>A495>D495>pT495” and the CaM-peptide complex formation result is recorded as “also showed CaM-peptide binding”. Further, the “inhibition of L-citrulline formation” value in test [2] (setting [4]) came to 70%. The “order of inhibitory potency to eNOS activity: inter-domain electron transfer (citrulline formation)” value in test [2] is given as “T495>A495>D495>pT495”. Besides, in test [3], the “inhibition of cytochrome c reductase activity” value came to 90% and the “order of inhibitory potency to eNOS activity: intra-domain electron transfer (cytochrome c reduction)” value is “T495>A495>D495>pT495”.
